Source: PMC5454994, “Assembly of Hepatocyte Spheroids Using Magnetic 3D Cell Culture for CYP450 Inhibition/Induction” (International Journal of Molecular Sciences, 2017)

Key:
CYP1A2 = target: T1, CYP1A2 (Homo sapiens, UniProt P05177); experiment: CYP1A2 activity (P450-Glo, Luciferin-1A2) in primary human hepatocyte spheroids and monolayers after 72 h drug exposure; format: in vitro ADME; conditions: primary human hepatocytes, 72 h exposure
T1 sequence (P05177 1-516): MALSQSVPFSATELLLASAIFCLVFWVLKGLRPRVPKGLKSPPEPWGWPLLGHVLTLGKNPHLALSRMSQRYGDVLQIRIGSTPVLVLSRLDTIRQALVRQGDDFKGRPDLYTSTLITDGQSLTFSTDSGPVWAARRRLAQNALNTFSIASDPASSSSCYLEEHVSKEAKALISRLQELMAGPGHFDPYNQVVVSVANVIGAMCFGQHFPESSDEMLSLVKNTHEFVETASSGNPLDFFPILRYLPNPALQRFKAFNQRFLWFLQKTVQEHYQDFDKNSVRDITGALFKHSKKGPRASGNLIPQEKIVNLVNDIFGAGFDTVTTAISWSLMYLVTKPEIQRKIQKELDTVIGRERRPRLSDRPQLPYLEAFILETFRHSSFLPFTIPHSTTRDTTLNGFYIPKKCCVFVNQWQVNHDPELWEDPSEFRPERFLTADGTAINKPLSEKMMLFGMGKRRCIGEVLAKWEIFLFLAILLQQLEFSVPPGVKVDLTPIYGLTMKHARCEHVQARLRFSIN

CYP2B6 = target: T2, CYP2B6 (Homo sapiens, UniProt P20813); conditions: CYP2B6 replicates, primary human hepatocytes, 72 h exposure
T2 sequence (P20813 1-491): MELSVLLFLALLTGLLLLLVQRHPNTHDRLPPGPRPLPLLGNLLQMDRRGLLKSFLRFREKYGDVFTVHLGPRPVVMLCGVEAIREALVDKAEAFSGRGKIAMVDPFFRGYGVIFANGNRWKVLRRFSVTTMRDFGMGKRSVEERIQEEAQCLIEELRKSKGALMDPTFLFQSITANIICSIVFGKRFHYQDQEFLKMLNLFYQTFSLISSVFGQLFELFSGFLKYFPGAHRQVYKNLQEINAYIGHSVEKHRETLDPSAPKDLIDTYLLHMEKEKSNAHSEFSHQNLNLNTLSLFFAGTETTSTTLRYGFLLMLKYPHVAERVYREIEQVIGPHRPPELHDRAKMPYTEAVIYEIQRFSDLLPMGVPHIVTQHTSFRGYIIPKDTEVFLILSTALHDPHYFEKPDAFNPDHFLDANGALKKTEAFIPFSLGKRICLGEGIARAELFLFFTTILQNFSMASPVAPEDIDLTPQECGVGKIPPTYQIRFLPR

Compound | CYP1A2 activity in the presence of toxicity (CYP1A2) | CYP1A2 induction, monolayers compared to spheroids (CYP1A2; normalized to control) | CYP2B6 activity in the presence of toxicity (CYP2B6)
COc1ccc2[nH]c([S+]([O-])Cc3ncc(C)c(OC)c3C)nc2c1 (stereo not drawn) [omeprazole] | no observed decrease in CYP activity despite toxicity | higher in monolayers compared to spheroids | 
CO[C@H]1/C=C/O[C@@]2(C)Oc3c(C)c(O)c4c(O)c(c(/C=N/N5CCN(C)CC5)c(O)c4c3C2=O)NC(=O)/C(C)=C\C=C\[C@H](C)[C@H](O)[C@@H](C)[C@@H](O)[C@@H](C)[C@H](OC(C)=O)[C@@H]1C [rifampicin] |  |  | no observed decrease in CYP activity despite toxicity
